According to PubChem BioAssay AID330 (DTP/NCI, 2004):
Where “and” joins values, the source holds several entries; their conditions need not be identical. Identical values can stand only once. Toxic doses and inconclusive results are not listed. How the source made its calls: active means survival T/C of 150% or more; inactive means T/C below 125% in these data.

System: P388 leukemia ip, CD2F1 mice, survival T/C
Test: NCI In Vivo Anticancer Drug Screen. Data for tumor model P388 Leukemia (intraperitoneal) in CD2F1 (CDF1) mice
Settings: endpoint: median survival time, higher = longer survival
Method in brief: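 Mice carrying the transplanted tumor received test compound or vehicle. Survival was recorded in each group, and the value is the treated-group measurement divided by that of the vehicle-treated control group.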

[1] = dose: 50.0 mg/kg/injection, schedule: Q01DX009 (ip), vehicle: Klucel (hydroxypropylcellulose) (HPC)
[2] = dose: 100.0 mg/kg/injection, schedule: Q01DX009 (ip), vehicle: Klucel (hydroxypropylcellulose) (HPC)
[3] = dose: 200.0 mg/kg/injection, schedule: Q01DX009 (ip), vehicle: Klucel (hydroxypropylcellulose) (HPC)
[4] = dose: 12.5 mg/kg/injection, schedule: Q01DX005 (ip), vehicle: saline with Tween-80
[5] = dose: 25.0 mg/kg/injection, schedule: Q01DX005 (ip), vehicle: saline with Tween-80
[6] = dose: 50.0 mg/kg/injection, schedule: Q01DX009 (ip), vehicle: saline with Tween-80
[7] = dose: 100.0 mg/kg/injection, schedule: Q01DX009 (ip), vehicle: saline with Tween-80
[8] = dose: 200.0 mg/kg/injection, schedule: Q01DX009 (ip), vehicle: saline with Tween-80
[9] = dose: 60.0 mg/kg/injection, schedule: Q01DX005 (ip), vehicle: saline with Tween-80
[10] = dose: 120.0 mg/kg/injection, schedule: Q01DX005 (ip), vehicle: saline with Tween-80
[11] = dose: 240.0 mg/kg/injection, schedule: Q01DX005 (ip), vehicle: saline with Tween-80
[12] = dose: 400.0 mg/kg/injection, schedule: Q04DX002 (ip), vehicle: saline with Tween-80
[13] = dose: 6.25 mg/kg/injection, schedule: Q01DX009 (ip), vehicle: saline with Tween-80
[14] = dose: 12.5 mg/kg/injection, schedule: Q01DX009 (ip), vehicle: saline with Tween-80
[15] = dose: 25.0 mg/kg/injection, schedule: Q01DX009 (ip), vehicle: saline with Tween-80
[16] = dose: 50.0 mg/kg/injection, schedule: Q01DX005 (ip), vehicle: Klucel (hydroxypropylcellulose) (HPC)

Measured: T/C

CNC(=O)c1cc([N+](=O)[O-])cnc1NC
inactive: [1] 95 % of control | [2] 98 % of control | [3] 92 % of control

Cc1cc(C)c2c(=O)n(-c3ccc(Br)cc3)c(=S)n(-c3ccc(Br)cc3)c2n1
inactive: [4] 99 % of control | [5] 97 % of control | dose: 50.0 mg/kg/injection, schedule: Q01DX005 (ip), vehicle: saline with Tween-80 87 % of control and 95 % of control

COc1ccc(Oc2c(OC)cc(NCCCCCN3C(=O)c4ccccc4C3=O)c3ncccc23)cc1
inactive: [6] 88 % of control | [7] 97 % of control | [8] 89 % of control

COc1ccc(OC)c(/C=C2/C(=O)N(c3ccccc3)N=C2C)c1
inactive: dose: 60.0 mg/kg/injection, schedule: Q01DX005 (ip), vehicle: Klucel (hydroxypropylcellulose) (HPC) 107 % of control | dose: 120.0 mg/kg/injection, schedule: Q01DX005 (ip), vehicle: Klucel (hydroxypropylcellulose) (HPC) 105 % of control | dose: 240.0 mg/kg/injection, schedule: Q01DX005 (ip), vehicle: Klucel (hydroxypropylcellulose) (HPC) 107 % of control

CCSc1nc(N)c(C(=O)N2CCCCC2)s1
inactive: [1] 99 % of control | [2] 98 % of control | [3] 105 % of control

CCC(c1ccc(OC)cc1)C(NCC(=O)NNC(=S)Nc1cccc(C)c1)c1ccc(OC)cc1 (stereo not drawn)
inactive: dose: 100.0 mg/kg/injection, schedule: Q01DX001 (ip), vehicle: saline with Tween-80 90 % of control | dose: 200.0 mg/kg/injection, schedule: Q01DX001 (ip), vehicle: saline with Tween-80 96 % of control

CCC1(C)CC(C#N)(C#N)C(=O)NC1=O (stereo not drawn)
inactive: [9] 100 % of control | [10] 97 % of control | [11] 100 % of control

CC1=NOC(=O)C1N=Nc1ccc(Br)cc1C (stereo not drawn)
inactive: dose: 100.0 mg/kg/injection, schedule: Q04DX002 (ip), vehicle: saline with Tween-80 101 % of control | dose: 100.0 mg/kg/injection, schedule: Q05DX002 (ip), vehicle: saline with Tween-80 99 % of control | dose: 200.0 mg/kg/injection, schedule: Q04DX002 (ip), vehicle: saline with Tween-80 98 % of control | dose: 200.0 mg/kg/injection, schedule: Q05DX002 (ip), vehicle: saline with Tween-80 99 % of control | [12] 102 % of control

CCCCCCCCOC(=O)Nc1ccc(OCC)cc1
inactive: dose: 0.75 mg/kg/injection, schedule: Q01DX009 (ip), vehicle: saline with Tween-80 92 % of control | dose: 1.5 mg/kg/injection, schedule: Q01DX009 (ip), vehicle: saline with Tween-80 97 % of control | dose: 3.0 mg/kg/injection, schedule: Q01DX009 (ip), vehicle: saline with Tween-80 104 % of control

O=C1CC(c2ccccc2)NCCC2CN(CCCN1)C(=O)c1ccccc12 (stereo not drawn)
inactive: dose: 16.25 mg/kg/injection, schedule: Q01DX005 (ip), vehicle: Klucel (hydroxypropylcellulose) (HPC) 100 % of control | dose: 32.5 mg/kg/injection, schedule: Q01DX005 (ip), vehicle: Klucel (hydroxypropylcellulose) (HPC) 100 % of control | dose: 65.0 mg/kg/injection, schedule: Q01DX005 (ip), vehicle: Klucel (hydroxypropylcellulose) (HPC) 100 % of control | dose: 130.0 mg/kg/injection, schedule: Q01DX005 (ip), vehicle: Klucel (hydroxypropylcellulose) (HPC) 100 % of control

CCSCCC1(CCC(C)C)C(=O)NC(=Nc2ccccc2)NC1=O (stereo not drawn)
inactive: [6] 99 % of control | [7] 95 % of control | [8] 99 % of control | dose: 400.0 mg/kg/injection, schedule: Q01DX009 (ip), vehicle: saline with Tween-80 95 % of control

Cc1cc(O)cc2c1c(=O)c1ccccc1n2C
inactive: [9] 100 % of control | [10] 100 % of control | [11] 96 % of control

C=C(C)C(=O)NCC(=O)NCC(=O)NCC(=O)Oc1ccc([N+](=O)[O-])cc1
inactive: dose: 50.0 mg/kg/injection, schedule: Q04DX003 (ip), vehicle: saline with Tween-80 100 % of control | dose: 100.0 mg/kg/injection, schedule: Q04DX003 (ip), vehicle: saline with Tween-80 90 % of control | dose: 200.0 mg/kg/injection, schedule: Q04DX003 (ip), vehicle: saline with Tween-80 99 % of control

[Cu+2].[O-]/C(=N\N=C/c1ccco1)c1ccccc1O.[O-]/C(=N\N=C/c1ccco1)c1ccccc1O.[OH3+].[OH3+]
inactive: [12] 93 % of control

COC(c1ccc(OCc2ccccc2)cc1)C(Br)C(=O)c1ccc(Cl)cc1Cl (stereo not drawn)
inactive: [6] 88 % of control | [7] 101 % of control | [8] 88 % of control

CN1CCC23c4c5ccc(O)c4OC2C(=NN=C2CCC4(O)C6Cc7ccc(O)c8c7C4(CCN6C)C2O8)CCC3(O)C1C5 (stereo not drawn)
inactive: [4] 96 % of control | [5] 90 % of control

CN1CCCN(C(c2ccccc2)c2ccc(Cl)cc2)CC1 (stereo not drawn)
inactive: [13] 107 % of control | [14] 114 % of control and 115 % of control | [15] 107 % of control and 114 % of control | [6] 120 % of control

O=C1OCCC1C(O)c1ccccc1 (stereo not drawn)
inactive: dose: 25.0 mg/kg/injection, schedule: Q01DX009 (ip), vehicle: other 110 % of control | dose: 50.0 mg/kg/injection, schedule: Q01DX009 (ip), vehicle: other 102 % of control | dose: 100.0 mg/kg/injection, schedule: Q01DX009 (ip), vehicle: other 110 % of control | dose: 200.0 mg/kg/injection, schedule: Q01DX009 (ip), vehicle: other 107 % of control | dose: 400.0 mg/kg/injection, schedule: Q01DX009 (ip), vehicle: other 111 % of control

Nc1ccc(C(=O)c2ccccc2)cc1
inactive: [15] 93 % of control | [6] 100 % of control | [7] 102 % of control

Cc1cc(N/N=C/c2ccnc3ccccc23)c2cc3c(cc2n1)OCO3
inactive: dose: 12.5 mg/kg/injection, schedule: Q01DX005 (ip), vehicle: Klucel (hydroxypropylcellulose) (HPC) 90 % of control and 93 % of control | dose: 25.0 mg/kg/injection, schedule: Q01DX005 (ip), vehicle: Klucel (hydroxypropylcellulose) (HPC) 100 % of control and 105 % of control | [16] 103 % of control and 108 % of control

O=C(CCS(=O)(=O)CCC(=O)c1ccc2ccccc2c1)c1ccc2ccccc2c1
inactive: dose: 25.0 mg/kg/injection, schedule: Q04DX003 (ip), vehicle: saline 102 % of control | dose: 50.0 mg/kg/injection, schedule: Q04DX003 (ip), vehicle: saline 99 % of control | dose: 100.0 mg/kg/injection, schedule: Q04DX003 (ip), vehicle: saline 92 % of control and 98 % of control | dose: 400.0 mg/kg/injection, schedule: Q04DX003 (ip), vehicle: saline 88 % of control

CC(=O)O[C@H]1[C@@H](C(C)C)CC[C@@]2(C)[C@H](Br)CC[C@@](C)(O)[C@H]12
inactive: dose: 20.0 mg/kg/injection, schedule: Q01DX005 (ip), vehicle: other 105 % of control | dose: 40.0 mg/kg/injection, schedule: Q01DX005 (ip), vehicle: other 105 % of control | dose: 80.0 mg/kg/injection, schedule: Q01DX005 (ip), vehicle: other 105 % of control

C[C@]12CCC(=O)C[C@@H]1CC[C@@H]1[C@@H]2CC[C@]2(C)[C@@H]3OCCC[C@H]3C[C@@H]12
inactive: [9] 91 % of control | [10] 89 % of control | [11] 90 % of control

NC(=S)N/N=C/c1ccc(OC(F)(F)F)cn1
inactive: dose: 1.56 mg/kg/injection, schedule: Q01DX009 (ip), vehicle: saline with Tween-80 101 % of control | dose: 3.13 mg/kg/injection, schedule: Q01DX009 (ip), vehicle: saline with Tween-80 101 % of control and 107 % of control | [13] 100 % of control and 95 % of control | [14] 99 % of control and 101 % of control | [15] 101 % of control | [6] 114 % of control

Fc1ccc2nc3ccccc3c(SCCNCCSc3c4ccccc4nc4ccc(F)cc34)c2c1
inactive: [9] 97 % of control | [10] 89 % of control

N#Cc1nc(CC(=O)c2ccc(Cl)cc2Cl)c(CC(=O)c2ccc(Cl)cc2Cl)nc1C#N
inactive: dose: 60.0 mg/kg/injection, schedule: Q01DX005 (ip), vehicle: saline 112 % of control | dose: 120.0 mg/kg/injection, schedule: Q01DX005 (ip), vehicle: saline 106 % of control

COc1cc2c(cc1OC)[C@@H](CO)[C@H]1c3cc4c(cc3CCN1C2)OCO4
inactive: dose: 50.0 mg/kg/injection, schedule: Q04DX003 (ip), vehicle: distilled water + Tween-80 106 % of control and 115 % of control | dose: 100.0 mg/kg/injection, schedule: Q04DX003 (ip), vehicle: distilled water + Tween-80 100 % of control and 98 % of control | dose: 200.0 mg/kg/injection, schedule: Q04DX003 (ip), vehicle: distilled water + Tween-80 105 % of control and 120 % of control

CCc1nc(N)nc(N)c1-c1ccc(N(C)C)c(N)c1
inactive: [16] 100 % of control | dose: 100.0 mg/kg/injection, schedule: Q01DX005 (ip), vehicle: Klucel (hydroxypropylcellulose) (HPC) 96 % of control
